Publication PMC4621912, “Anticancer activity of MPT0G157, a derivative of indolylbenzenesulfonamide, inhibits tumor growth and angiogenesis” (Oncotarget, 2015)
Read-outs that look alike come from different tables or passages of the source.

What was measured:
[1] = test system: HCT116 cells; assay: SRB cell proliferation assay, HCT116; format: cell-based; conditions: Homo sapiens, read-out: GI50, HCT116
Method: (§1) Results are shown as mean ± SEM from three independent experiments. […] Cells (1 × 10^4) in 100 μL of medium in 96-well plates were incubated with vehicle (control) or vehicle with test compound for 12 or 24 h. After various treatments, 1 mg/mL of MTT was added and the plates were incubated at 37°C for an additional 2 h, then the cells were pelleted and lysed in 100 μL of dimethyl sulfoxide, and the absorbance at 550 nm was measured on a microplate reader. Cell proliferation was measured by the SRB assay. Cells (1 × 10^4) were incubated for 48 h with the indicated concentrations of test compounds, then were fixed with 10% trichloroacetic acid, stained for 30 min with SRB (0.4% in 1% acetic acid), and washed repeatedly with 1% acetic acid. Protein-bound dye was dissolved in 10 mM Tris base solution and the optical density at 510 nm measured.

[2] = test system: MDA-MB-231 cells; assay: SRB cell proliferation assay, MDA-MB-231; format: cell-based; conditions: Homo sapiens, read-out: GI50, MDA-MB-231
Method: as §1

[3] = test system: A549 cells; assay: SRB cell proliferation assay, A549; format: cell-based; conditions: Homo sapiens, read-out: GI50, A549
Method: as §1

[4] = test system: AsPC-1 cells; assay: SRB cell proliferation assay, AsPC-1; format: cell-based; conditions: Homo sapiens, read-out: GI50, AsPC-1
Method: as §1

[5] = SRB cell proliferation assay, normal bone marrow stromal cells HS-5; format: cell-based; conditions: HS-5 normal bone marrow stromal cells, human normal bone marrow stromal cells
Method: as §1

[6] = biological target: T1, recombinant HDAC1 (Homo sapiens, UniProt Q13547); assay: Inhibition of recombinant HDAC enzyme activity (fluorogenic kit), HDAC1; format: biochemical; conditions: mean ± SEM, read-out: IC50 HDAC1 (Class I)
T1 construct: purchased BPS Bioscience Corp
T1 sequence (Q13547 whole entry): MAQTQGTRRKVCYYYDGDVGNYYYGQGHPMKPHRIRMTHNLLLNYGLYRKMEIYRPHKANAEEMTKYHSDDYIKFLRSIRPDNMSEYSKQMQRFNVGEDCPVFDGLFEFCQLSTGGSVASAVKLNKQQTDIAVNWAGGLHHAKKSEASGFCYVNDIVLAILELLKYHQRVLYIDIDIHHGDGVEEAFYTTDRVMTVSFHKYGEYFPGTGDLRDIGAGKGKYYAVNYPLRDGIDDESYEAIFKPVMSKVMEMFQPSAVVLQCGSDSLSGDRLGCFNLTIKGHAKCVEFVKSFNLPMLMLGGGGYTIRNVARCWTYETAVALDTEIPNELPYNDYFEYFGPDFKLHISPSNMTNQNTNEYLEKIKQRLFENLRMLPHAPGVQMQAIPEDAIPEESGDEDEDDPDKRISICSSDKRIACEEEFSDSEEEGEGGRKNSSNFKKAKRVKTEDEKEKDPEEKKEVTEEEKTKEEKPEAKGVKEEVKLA
From the text: (§2) Fluorogenic HDAC assay kits (BPS Bioscience Corp., San Diego, CA, USA) were used to assess the ability of HDAC inhibitors to inhibit deacetylation of lysine residues on the substrate by recombinant HDAC1, 2, 3, 4, 6, or 8 according to the manufacturer's instructions.

[7] = biological target: T2, recombinant HDAC2 (Homo sapiens, UniProt Q92769); assay: Inhibition of recombinant HDAC enzyme activity (fluorogenic kit), HDAC2; format: biochemical; conditions: mean ± SEM, read-out: IC50 HDAC2 (Class I)
T2 construct: purchased BPS Bioscience Corp
T2 sequence (Q92769 whole entry): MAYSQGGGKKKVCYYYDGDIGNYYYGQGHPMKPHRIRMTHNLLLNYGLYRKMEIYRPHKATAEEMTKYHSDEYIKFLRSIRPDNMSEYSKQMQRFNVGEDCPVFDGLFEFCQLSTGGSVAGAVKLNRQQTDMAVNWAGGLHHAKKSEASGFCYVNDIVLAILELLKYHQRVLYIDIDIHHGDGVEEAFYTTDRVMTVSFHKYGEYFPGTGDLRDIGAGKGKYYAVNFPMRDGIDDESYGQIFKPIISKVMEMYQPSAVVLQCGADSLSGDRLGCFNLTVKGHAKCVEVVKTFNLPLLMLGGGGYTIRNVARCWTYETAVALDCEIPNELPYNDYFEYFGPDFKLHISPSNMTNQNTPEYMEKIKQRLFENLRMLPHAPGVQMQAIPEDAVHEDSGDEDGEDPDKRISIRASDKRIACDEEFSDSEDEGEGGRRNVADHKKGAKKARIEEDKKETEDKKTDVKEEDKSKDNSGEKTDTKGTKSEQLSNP
From the text: as §2

[8] = biological target: T3, recombinant HDAC3 (Homo sapiens, UniProt O15379); assay: Inhibition of recombinant HDAC enzyme activity (fluorogenic kit), HDAC3; format: biochemical; conditions: mean ± SEM, read-out: IC50 HDAC3 (Class I)
T3 construct: purchased BPS Bioscience Corp
T3 sequence (O15379 whole entry): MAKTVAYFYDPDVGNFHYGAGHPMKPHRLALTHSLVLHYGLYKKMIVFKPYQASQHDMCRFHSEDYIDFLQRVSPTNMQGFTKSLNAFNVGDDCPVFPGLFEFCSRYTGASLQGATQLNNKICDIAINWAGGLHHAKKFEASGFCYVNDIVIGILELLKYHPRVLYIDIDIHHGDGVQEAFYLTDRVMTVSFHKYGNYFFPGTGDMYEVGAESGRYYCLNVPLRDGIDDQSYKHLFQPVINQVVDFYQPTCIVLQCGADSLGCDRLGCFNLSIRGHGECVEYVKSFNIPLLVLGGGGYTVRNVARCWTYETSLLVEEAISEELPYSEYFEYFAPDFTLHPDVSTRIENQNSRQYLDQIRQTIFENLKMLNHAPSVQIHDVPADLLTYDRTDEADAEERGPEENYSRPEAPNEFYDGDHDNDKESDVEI
T3 sequence (Q9Y618 395-489 partner limits assumed): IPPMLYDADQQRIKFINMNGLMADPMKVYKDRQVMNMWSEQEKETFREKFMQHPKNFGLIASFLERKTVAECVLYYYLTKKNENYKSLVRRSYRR
From the text: as §2

[9] = biological target: T4, recombinant HDAC8 (Homo sapiens, UniProt Q9BY41); assay: Inhibition of recombinant HDAC enzyme activity (fluorogenic kit), HDAC8; format: biochemical; conditions: mean ± SEM, read-out: IC50 HDAC8 (Class I)
T4 construct: purchased BPS Bioscience Corp
T4 sequence (Q9BY41 1-377): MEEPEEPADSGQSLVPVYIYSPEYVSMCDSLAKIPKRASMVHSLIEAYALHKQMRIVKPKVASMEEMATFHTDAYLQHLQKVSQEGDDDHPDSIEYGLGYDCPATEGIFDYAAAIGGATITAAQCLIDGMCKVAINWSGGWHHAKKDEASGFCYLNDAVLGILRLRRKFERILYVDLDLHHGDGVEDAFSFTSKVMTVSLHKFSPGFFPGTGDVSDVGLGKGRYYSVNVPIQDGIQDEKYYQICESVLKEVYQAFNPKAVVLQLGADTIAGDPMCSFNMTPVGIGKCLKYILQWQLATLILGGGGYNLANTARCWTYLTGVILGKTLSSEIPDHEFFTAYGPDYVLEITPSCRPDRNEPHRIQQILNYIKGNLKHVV
From the text: as §2

[10] = biological target: T5, recombinant HDAC4 (Homo sapiens, UniProt P56524); assay: Inhibition of recombinant HDAC enzyme activity (fluorogenic kit), HDAC4; format: biochemical; conditions: mean ± SEM, read-out: IC50 HDAC4 (Class IIa)
T5 construct: purchased BPS Bioscience Corp
T5 sequence (P56524 627-1084 limits assumed): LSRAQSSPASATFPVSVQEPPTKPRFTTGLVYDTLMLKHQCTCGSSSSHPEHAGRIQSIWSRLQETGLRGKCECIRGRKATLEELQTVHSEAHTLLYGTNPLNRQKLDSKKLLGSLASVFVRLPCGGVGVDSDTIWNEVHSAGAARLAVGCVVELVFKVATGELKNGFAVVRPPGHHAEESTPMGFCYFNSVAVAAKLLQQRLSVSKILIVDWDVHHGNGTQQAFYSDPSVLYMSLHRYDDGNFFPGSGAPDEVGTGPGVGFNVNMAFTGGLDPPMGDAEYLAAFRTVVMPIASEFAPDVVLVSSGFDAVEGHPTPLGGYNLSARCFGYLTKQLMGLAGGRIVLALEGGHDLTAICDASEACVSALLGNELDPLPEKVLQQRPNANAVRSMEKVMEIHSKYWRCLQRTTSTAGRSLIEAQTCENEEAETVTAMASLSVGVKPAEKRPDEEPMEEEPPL
From the text: as §2

[11] = biological target: T6, recombinant HDAC6 (Homo sapiens, UniProt Q9UBN7); assay: Inhibition of recombinant HDAC enzyme activity (fluorogenic kit), HDAC6; format: biochemical; conditions: mean ± SEM, read-out: IC50 HDAC6 (Class IIb)
T6 construct: purchased BPS Bioscience Corp
T6 sequence (Q9UBN7 1-1215): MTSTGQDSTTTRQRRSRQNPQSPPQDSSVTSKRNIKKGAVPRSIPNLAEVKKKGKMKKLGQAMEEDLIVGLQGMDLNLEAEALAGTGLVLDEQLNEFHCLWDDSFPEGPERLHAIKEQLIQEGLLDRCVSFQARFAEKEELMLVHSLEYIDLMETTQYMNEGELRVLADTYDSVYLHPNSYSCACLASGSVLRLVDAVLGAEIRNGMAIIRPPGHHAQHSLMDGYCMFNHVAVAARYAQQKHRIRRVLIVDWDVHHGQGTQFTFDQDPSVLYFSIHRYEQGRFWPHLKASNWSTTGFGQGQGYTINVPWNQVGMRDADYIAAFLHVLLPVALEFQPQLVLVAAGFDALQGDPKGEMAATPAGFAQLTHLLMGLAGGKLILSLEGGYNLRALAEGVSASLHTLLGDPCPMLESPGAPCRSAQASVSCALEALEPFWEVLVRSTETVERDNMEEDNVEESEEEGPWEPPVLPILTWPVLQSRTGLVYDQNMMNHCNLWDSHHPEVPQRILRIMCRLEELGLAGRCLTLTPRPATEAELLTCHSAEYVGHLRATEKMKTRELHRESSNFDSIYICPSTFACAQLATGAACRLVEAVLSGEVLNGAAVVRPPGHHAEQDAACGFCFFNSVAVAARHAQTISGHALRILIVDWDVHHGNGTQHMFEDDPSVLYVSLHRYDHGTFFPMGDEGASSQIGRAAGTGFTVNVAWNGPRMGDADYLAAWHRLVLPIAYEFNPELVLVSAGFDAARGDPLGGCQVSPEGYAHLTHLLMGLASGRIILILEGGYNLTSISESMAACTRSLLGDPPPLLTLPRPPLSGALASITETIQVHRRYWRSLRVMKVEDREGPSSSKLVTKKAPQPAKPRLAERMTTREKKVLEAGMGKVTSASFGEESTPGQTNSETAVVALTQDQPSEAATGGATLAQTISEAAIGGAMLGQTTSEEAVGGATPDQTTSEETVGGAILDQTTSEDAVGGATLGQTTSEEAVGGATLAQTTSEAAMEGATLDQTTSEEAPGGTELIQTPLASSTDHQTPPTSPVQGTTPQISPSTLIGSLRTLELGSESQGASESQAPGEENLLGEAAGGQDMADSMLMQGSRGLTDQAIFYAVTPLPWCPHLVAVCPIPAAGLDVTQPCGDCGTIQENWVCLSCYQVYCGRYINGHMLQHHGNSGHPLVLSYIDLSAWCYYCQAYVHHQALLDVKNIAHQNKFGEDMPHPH
From the text: as §2

[12] = test system: total HDAC activity in HCT116 cells; assay: Total HDAC enzymatic activity assay in treated HCT116 cells; format: cell-based; conditions: Homo sapiens, read-out: HDAC inhibitory IC50 in HCT116 cells (total HDAC enzyme activity)
Method: B. HCT116 cells (1 × 10^6) treated as explained in (A), whole-cell extracts were subjected to western blotting for the indicated proteins. Quantitative analysis of acetyl-histone H3 C. and acetyl-α-tubulin D. expression in western blot were determined by ImageQuant (Molecular Dynamics, USA). E. Immunohistochemical analysis of the HDAC1, 2 and 6 expression of a tissue microarray containing normal colon tissues and tumor tissue derived from patients with colon adenocarcinoma. Scale bars are indicated. […] Total cell lysates were collected and the total HDAC enzyme activity was analyzed using HDAC activity fluorometric assay kit (Cat No. K330–100; BioVision, Milpitax, CA, USA).

[13] = test system: HCT116 xenograft tumor; assay: HCT116 xenograft model; format: in vivo, nude mice; conditions: 15 mg/kg
Method: Figure 5 The effect of MPT0G157 in HCT116 xenograft model Mice bearing established HCT116 tumors (~100 mm^3) were divided into three group (n = 5) and dosed as Materials and Methods. The tumor volumes A. and body weight B. of mice were measured. Results are mean ± SEM. **p < 0.01 versus control group.
HCT116 cells were implanted subcutaneously into four week old male nude mice. When the tumors reached the average volume of 100 mm^3, the mice were randomly divided into three groups (n = 5) and then were treated with the vehicle (1% carboxymethyl cellulose + 0.5% Tween 80, 0.2 mL/mouse), MPT0G157 (15 mg/kg) by intravenously injection five on two off in the first week and intraperitoneal injection in the other weeks. The length (L) and width (W) of the tumor were measured by caliper every 3 to 4 days, and the tumor volume was calculated as L × W^2/2.

[14] = test system: matrigel-induced angiogenesis; assay: In vivo matrigel plug angiogenesis assay; set-up: species or system nude mice; conditions: 0.1 and 1 μM in matrigel, seven days, versus control group
From the text: A. After seven days, the animals were sacrificed and the plugs were excised from the mice and photographed. Scale bar represents 0.5 cm. B. Sections of H&E, Masson's trichrome stained and CD31 stained matrigel plugs were examined by light microscopy under 200 × magnification. Scale bar = 100 μm. C. Quantification of the hemoglobin contents of matrigel plugs by spectrophotometer measured at 540 nm. Data represent the mean ± SEM. *p < 0.05 and ***p < 0.001 versus control group.
Six-week-old female nude mice were divided into four groups with three animals in each group. Mice were injected subcutaneously into the abdomens with matrigel (BD Bioscience) mixed with PBS or angiogenic factors (40 ng/ml) with/without MPT0G157 (0.1 μM and 1 μM). After seven days, the animals were sacrificed and the plugs were carefully dissected and photographed, the plugs were performed hematoxylin and eosin (H&E), Masson's trichrome stain and CD31 staining. To quantify the blood vessel formation, hemoglobin content was analyzed by Drabkin's reagent kit (Sigma Chemical, St. Louis, MO).

[15] = test system: HIF-1α and VEGF expression in HCT116 cells; assay: CoCl2-induced HIF-1α / VEGF expression in HCT116 cells (western blot, RT-PCR); format: cell-based, human; conditions: 0.1 μM 24 h, then CoCl2 300 μM 4 h
Method: D. Cells were incubated as explained in (C), the levels of hypoxia-inducible factor-1α (HIF-1α), vascular endothelial growth factor (VEGF) mRNA were measured by RT-PCR.
Total RNA was isolated from cells using TRIzol reagent (Invitrogen). Single-strand cDNA for a polymerase chain reaction (PCR) template was synthesized from 5 μg of total RNA using random primers and Moloney murine leukemia virus reverse transcriptase (Promega). […] Equal amounts (1 μg) of each reverse-transcription product were PCR-amplified using Taq polymerase and 35 cycles of 1 min at 95°C, 1 min at 58°C, and 1 min at 72°C. The amplified cDNA was run on 1% agarose gels and visualized under UV light following staining with SYBR Safe DNA gel stain (Invitrogen).
Cells (1 × 10^6) were incubated for 10 min at 4°C in lysis buffer (20 mM HEPES, pH 7.4, 2 mM EGTA, 50 mM β-glycerophosphate, 0.1% Triton X-100, 10% glycerol, 1 mM DTT, 1 μg/mL of leupeptin, 5 μg/mL of aprotinin, 1 mM phenylmethylsulfonyl fluoride, and 1 mM sodium orthovanadate), were scraped off, incubated on ice for an additional10 min, and centrifuged at 17, 000 g for 30 min at 4°C. Protein samples (80 μg) were then electrophoresed on sodium dodecyl sulfate polyacrylamide gels (SDS-PAGE) and transferred onto a nitrocellulose membrane, which was then blocked by incubation for 30 min at room temperature with 5% fat-free milk in phosphate-buffered saline (PBS). Immunoblotting was performed by overnight incubation at 4°C with primary antibodies in PBS, followed by incubation for 1 h at room temperature with HRP-conjugated secondary antibodies. Bound antibodies were measured using ECL reagent (Advansta Corp., Menlo Park, CA, USA) and exposure to photographic film.

[16] = test system: HDAC (HeLa nuclear extract); set-up: method as in PMID 25113875; conditions: cited from earlier work
[17] = test system: inflammatory factors NO, TNF-α, IL-6, PGE2; set-up: method as in PMID 25113875; conditions: cited from earlier work

Work on `Cc1[nH]c2ccccc2c1CCNS(=O)(=O)c1ccc(C=CC(=O)NO)cc1` [MPT0G157, N-hydroxy-3-{4-[2-(2-methyl-1H-indol-3-yl)-ethylsulfamoyl]-phenyl}-acrylamide] yielded a GI50 ([1]; HCT-116, SRB assay, 48 h) of 29 ± 2 nM, a GI50 ([2]; MDA-MB-231, SRB assay, 48 h) of 47 ± 7 nM and a GI50 ([3]; A549, SRB assay, 48 h) of 307 ± 36 nM. It also gave a GI50 ([4]; ASPC1, SRB assay, 48 h) of 103 ± 17 nM, a GI50 at 48 h [5] of over 100000 nM and an IC50 [6] of 7.69 ± 1.84 nM. It also gave an IC50 [7] of 5.13 ± 0.67 nM, an IC50 [8] of 9.36 ± 0.7 nM and an IC50 [9] of over 1000 nM. The IC50 [10] was over 1000 nM, the IC50 [11] was 14.3 ± 0.77 nM and the IC50 ([12]; HCT-116, HCT116 cells treated 24 h) was 470 ± 140 nM. The “body weight loss during treatment” value ([13]; HCT116 xenograft mice) was “no significant differences in weight loss”, the “percent of tumor growth inhibition (TGI)” value ([13]; i.v. first week then i.p., nude mice with HCT116 tumors) was 50.7% and the “angiogenic response (hemoglobin content of matrigel plugs)” value [14] was “significantly suppressed the angiogenic response”. For the same compound, the “CoCl2-induced HIF-1α protein expression” value ([15]; HCT116) was “markedly inhibited”, the “CoCl2-induced VEGF mRNA expression” value ([15]; HCT116, RT-PCR) was “markedly inhibited” and the “HIF-1α mRNA levels” value ([15]; HCT116, RT-PCR) was “did not reduce”. The IC50 ([16]; HeLa nuclear extract as the HDAC source, read-out: IC50 for inhibition of HDAC activity) was 2.8 ± 0.2 nM, the “HDAC inhibition, fold compared with PXD101” value ([16]; compared with PXD101) was 9.4 fold and the “suppression of inflammatory factor activities, fold compared with PXD101” value [17] was 3.0–25.1 fold.

Work on `O=C(/C=C/c1cccc(S(=O)(=O)Nc2ccccc2)c1)NO` [PXD101, reference compound] yielded a GI50 ([1]; HCT-116, 48 h) of 90 ± 12 nM, a GI50 ([2]; MDA-MB-231, 48 h) of 241 ± 2 nM and a GI50 ([3]; A549, 48 h) of over 1000 nM. For the same compound, the GI50 ([4]; ASPC1, 48 h) was over 1000 nM, the IC50 [10] was 161 ± 2.36 nM and the IC50 [11] was 80.3 ± 8.69 nM. For the same compound, the IC50 ([12]; HCT-116, 24 h) was 10300 ± 2250 nM.

Work on `O=C(CCCCCCC(=O)Nc1ccccc1)NO` [SAHA] yielded a GI50 ([1]; HCT-116, 48 h) of 411 ± 37 nM, a GI50 ([2]; MDA-MB-231, 48 h) of 745 ± 43 nM and a GI50 ([3]; A549, 48 h) of over 1000 nM. The GI50 ([4]; ASPC1, 48 h) was over 1000 nM.
